Test results from the supplement of paper PMC10307832.

These cell lines were tested with CC1(COc2ccc3c(c2)ncn3-c2ccc3cccc(N4CCC(N)CC4)c3n2)COC1 [Crenolanib] + NC(=O)Nc1cc(-c2cccc(F)c2)sc1C(=O)N[C@H]1CCCNC1 [AZD7762] (partner 0.2 µM) (assay: relative viability (nuclei count vs DMSO), 5 days (fraction); higher = more cells survive). Settings: first compound 0.01 µM.
Procedure, shortened: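 Lung cancer cell lines were seeded in 1536-well plates and dosed by pin tool the next day, with either a single drug or a fixed anchor-drug dose combined with five library-drug doses (not always all listed) spaced in √10 steps. Five days later, one step fixed the cells and stained their nuclei (final 0.05% Triton X-100, 1% formaldehyde, 1 ug/ml Hoechst), and nuclei were counted on 4× images. Relative viability is the nuclei count in treated wells divided by the count in vehicle wells, and each value is the median of duplicate plates.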

| Cell Line | relative viability |
| --- | --- |
| HCC-78 | 0.629 |
| LXF-289 | 1.03 |
| BEN | 0.684 |
| HCC-15 | 1.07 |
| HCC-827 | 0.276 |
| NCI-H441 | 1.24 |
| LOU-NH91 | 0.765 |
| A-427 | 0.778 |
| NCI-H460 | 0.668 |
| NCI-H727 | 0.702 |
| NCI-H1755 | 0.423 |
| NCI-H2405 | 0.801 |
| NCI-H1395 | 0.374 |
| 201T | 0.686 |
| NCI-H1975 | 0.741 |
| HOP-62 | 0.618 |
| NCI-H2347 | 0.815 |
| NCI-H1355 | 0.729 |
| NCI-H650 | 1.06 |
| CAL-12T | 0.778 |
| NCI-H1666 | 0.928 |
| H3255 | 1.05 |
| NCI-H23 | 0.273 |
| NCI-H1915 | 0.745 |
| NCI-H1437 | 1.15 |
| NCI-H322M | 0.589 |
| HCC-366 | 0.689 |
| NCI-H1793 | 0.549 |

Same assay, conditions: first compound 0.03162 µM

| Cell Line | relative viability |
| --- | --- |
| HCC-78 | 0.619 |
| LXF-289 | 1.13 |
| BEN | 0.612 |
| HCC-15 | 1.15 |
| HCC-827 | 0.212 |
| NCI-H441 | 1.56 |
| LOU-NH91 | 0.762 |
| NCI-H460 | 0.482 |
| NCI-H727 | 0.445 |
| NCI-H1755 | 0.468 |
| NCI-H1395 | 0.392 |
| 201T | 0.633 |
| NCI-H1975 | 0.732 |
| HOP-62 | 0.709 |
| NCI-H2347 | 0.772 |
| NCI-H1355 | 0.89 |
| NCI-H650 | 0.975 |
| CAL-12T | 0.553 |
| NCI-H1666 | 0.831 |
| H3255 | 0.761 |
| NCI-H23 | 0.309 |
| NCI-H1915 | 0.74 |
| NCI-H1437 | 1.18 |
| NCI-H322M | 0.52 |
| NCI-H2085 | 0.983 |
| HCC-366 | 0.327 |
| NCI-H1793 | 0.794 |

Same assay, conditions: first compound 0.1 µM

| Cell Line | relative viability |
| --- | --- |
| HCC-78 | 0.733 |
| LXF-289 | 1.09 |
| BEN | 0.704 |
| HCC-15 | 0.961 |
| HCC-827 | 0.2 |
| NCI-H441 | 1.15 |
| LOU-NH91 | 0.782 |
| A-427 | 0.726 |
| NCI-H460 | 0.695 |
| NCI-H727 | 0.546 |
| NCI-H1755 | 0.362 |
| NCI-H2405 | 0.554 |
| NCI-H1395 | 0.412 |
| 201T | 0.605 |
| NCI-H1975 | 0.629 |
| HOP-62 | 0.668 |
| NCI-H2347 | 0.678 |
| NCI-H1355 | 0.705 |
| NCI-H650 | 1.01 |
| CAL-12T | 0.641 |
| NCI-H1666 | 0.761 |
| H3255 | 0.907 |
| NCI-H23 | 0.244 |
| NCI-H1915 | 0.688 |
| NCI-H1437 | 1.07 |
| NCI-H322M | 0.555 |
| NCI-H2085 | 0.997 |
| HCC-366 | 0.333 |
| NCI-H1793 | 0.538 |

Same assay, conditions: first compound 0.3162 µM

| Cell Line | relative viability |
| --- | --- |
| HCC-78 | 0.477 |
| LXF-289 | 1.11 |
| BEN | 0.735 |
| HCC-15 | 0.607 |
| HCC-827 | 0.189 |
| NCI-H441 | 1.33 |
| LOU-NH91 | 0.817 |
| A-427 | 0.802 |
| NCI-H460 | 0.872 |
| NCI-H727 | 0.671 |
| NCI-H1755 | 0.529 |
| NCI-H2405 | 0.773 |
| NCI-H1395 | 0.457 |
| 201T | 0.739 |
| NCI-H1975 | 0.639 |
| HOP-62 | 1.1 |
| NCI-H2347 | 0.818 |
| NCI-H1355 | 0.732 |
| NCI-H650 | 0.864 |
| CAL-12T | 0.634 |
| NCI-H1666 | 0.905 |
| H3255 | 0.835 |
| NCI-H23 | 0.268 |
| NCI-H1915 | 0.793 |
| NCI-H1437 | 1.19 |
| NCI-H322M | 0.544 |
| NCI-H2085 | 0.972 |
| HCC-366 | 0.363 |
| NCI-H1793 | 0.366 |

Same assay, conditions: first compound 1 µM

| Cell Line | relative viability |
| --- | --- |
| HCC-78 | 0.567 |
| LXF-289 | 1.05 |
| BEN | 0.71 |
| HCC-15 | 1.17 |
| HCC-827 | 0.218 |
| NCI-H441 | 1.17 |
| LOU-NH91 | 0.697 |
| A-427 | 0.853 |
| NCI-H460 | 0.86 |
| NCI-H727 | 0.587 |
| NCI-H1755 | 0.484 |
| NCI-H2405 | 0.646 |
| NCI-H1395 | 0.473 |
| 201T | 0.694 |
| NCI-H1975 | 0.712 |
| HOP-62 | 0.75 |
| NCI-H2347 | 0.85 |
| NCI-H1355 | 0.653 |
| NCI-H650 | 0.936 |
| CAL-12T | 0.799 |
